Laboratory results published in patent publication EP2177216A1, “Use of dianhydrohexite mononitrate derivatives as healing agents” (LACER, S.A., priority 2008, dated 2010).

System: full thickness wound (2 x 2 cm)
Assay: Wound healing (wound contraction and re-epithelialization) after topical hydrogel application to a full thickness skin wound in rats
Format: in vivo, Male Wistar rats
Experimental: Male Wistar rats provided by Janvier, Espana weighing 150 - 200 g were housed in our animal facilities in groups of 3 animals, being each group in a conventional animal facility where the environmental temperature and relative humidity are monitored and controlled. The lighting schedule in the animal facility is 12 hours light and 12 hours dark. The rats were used after an acclimatization period of five days. After a week quarantine period animals were dosed.
The solutions were allowed to attain dissolution equilibrium for a period of 8 h. The appropriate amount of compound of formula (I) was added to the hydrogel solution for homogenization. […] The hydrogels were used immediately after preparation.
Rats were anesthetized with sodium pentobarbital (40 mg/kg, i.p.) before treatments application to keep the animal calm to allow absorption of the products.
The dorsal surface was shaved and a full thickness wound (2 x 2 cm) was made on the back of each rat by removing the skin (epidermis and dermis) and exposing paniculus carnosus.
Groups of 5 rats for treatment were used, and 0.5 g of hydrogel was topically applied in a wound (2 x 2 cm) on the back of each rat.
Treatments were applied from the first day until fourth day after wounding. […] From the fifth day post-wounding, lesions were left uncovered in all groups. The animals were housed in individual cages with free access to food and water. […]
The area of the wounds (cm^2) and % re-ephitelización were estimated by the difference between the total lesion area and the wound area still uncovered.
The efficacy of treatments was evaluated by measuring wound area and percentage of re-epithelialization vs total wound area.

[1] = day 5, 0.5 g of hydrogel topically applied from first until fourth day after wounding, groups of 5 rats
[2] = day 8, 0.5 g of hydrogel topically applied from first until fourth day after wounding, initial wound 2 x 2 cm
[3] = versus control hydrogel, from wound area at day 8

SMILES	% Re-epithelialization (day 5) [1] [%]	Wound area (cm^2) (day 8) [2]	% Wound reduction vs control [3] [%]	% Re-epithelialization (day 5) (rat, in vivo) [%]	% Wound reduction vs control (rat, in vivo) [%]	Wound area (cm^2) (day 8) (rat, in vivo)
CC(=O)S[C@H]1CO[C@H]2[C@@H]1OC[C@H]2O[N+](=O)[O-] [Compound 1, 2-acetylthioisosorbide 5-mononitrate]	100	1.2	66	–	–	–
CC(=O)S[C@@H]1CO[C@H]2[C@@H]1OC[C@H]2O[N+](=O)[O-] [Compound 2, 2-acetylthioisomanide 5-mononitrate]	100	1.4	60	–	–	–
O=[N+]([O-])O[C@@H]1CO[C@H]2[C@@H]1OC[C@@H]2SS[C@H]1CO[C@H]2[C@@H]1OC[C@H]2O[N+](=O)[O-] [Compound 3, 5'5'-dinitrato-2,2'ditioisosorbide]	100	1.7	51	–	–	–
CS[C@H]1CO[C@H]2[C@@H]1OC[C@H]2O[N+](=O)[O-] [Compound 4, 2-Methylthioisosorbide 5-mononitrate]	100	1.1	69	–	–	–
CS(=O)(=O)[C@H]1CO[C@H]2[C@@H]1OC[C@H]2O[N+](=O)[O-] [Compound 5, 2-Methylsulfonylisosorbide 5-mononitrate]	90	1.7	51	–	–	–
CCC[S+]([O-])[C@H]1CO[C@H]2[C@@H]1OC[C@H]2O[N+](=O)[O-] (stereo partly drawn) [Compound 6, 2-[(R,S)-propylsulfinyl]isosorbide 5-mononitrate]	90	1.1	69	–	–	–
O=[N+]([O-])O[C@@H]1CO[C@H]2[C@@H]1OC[C@@H]2O [Compound 7, Isosorbide 5-mononitrate, reference compound]	–	–	–	60	60	1.4
